Source: patent US11224609B2, “Mithramycin derivatives having increased selectivity and anti-cancer activity” (University of Kentucky Research Foundation, priority 2017, dated 2022)

Legend:
[1] = system: TC-32 (Ewing sarcoma, EWS-FLI1 Type 1) cell line; details: for TC-32 Ewing sarcoma EWS-FLI1 Type 1 GI50: 72 h growth inhibition, TC-32 cells; for GI50 ratio PC-3:TC-32: selectivity, GI50 in PC-3 over GI50 in TC-32
[2] = system: PC-3 (prostate cancer, no ETS translocation) cell line; experiment: 72 h growth inhibition (GI50) assay in PC-3; details: read-out: PC-3 Prostate cancer No ETS Translocation GI50; 72 h growth inhibition, PC-3 cells

Structure (SMILES) | TC-32 Ewing sarcoma EWS-FLI1 Type 1 GI50 [1] | GI50 [2] | GI50 ratio PC-3:TC-32 [1] | fold decrease in activity in the TC-32 cell line ([1]; compared with the tryptophan parent)
COC(=O)C(Cc1cn(Cc2ccccc2)c2ccccc12)NC(=O)C(OC)C1Cc2cc3cc(OC4CC(OC5CC(O)C(O)C(C)O5)C(O)C(C)O4)c(C)c(O)c3c(O)c2C(=O)C1OC1CC(OC2CC(OC3CC(C)(O)C(O)C(C)O3)C(O)C(C)O2)C(O)C(C)O1 (stereo not shown) [Analogue 46] | 2297 nM | > 10000 nM | – | –
C=CCn1cc(CC(NC(=O)C(OC)C2Cc3cc4cc(OC5CC(OC6CC(O)C(O)C(C)O6)C(O)C(C)O5)c(C)c(O)c4c(O)c3C(=O)C2OC2CC(OC3CC(OC4CC(C)(O)C(O)C(C)O4)C(O)C(C)O3)C(O)C(C)O2)C(=O)OC)c2ccccc21 (stereo not shown) [Analogue 47] | 2715 nM | 3140 nM | 1.2 | –
COC(=O)C(Cc1c[nH]c2ccc(OC)cc12)NC(=O)C(OC)C1Cc2cc3cc(OC4CC(OC5CC(O)C(O)C(C)O5)C(O)C(C)O4)c(C)c(O)c3c(O)c2C(=O)C1OC1CC(OC2CC(OC3CC(C)(O)C(O)C(C)O3)C(O)C(C)O2)C(O)C(C)O1 (stereo not shown) [Analogue 49] | 675 nM | 617 nM | 0.9 | –
COC(=O)C(Cc1c[nH]c2ccc([N+](=O)[O-])cc12)NC(=O)C(OC)C1Cc2cc3cc(OC4CC(OC5CC(O)C(O)C(C)O5)C(O)C(C)O4)c(C)c(O)c3c(O)c2C(=O)C1OC1CC(OC2CC(OC3CC(C)(O)C(O)C(C)O3)C(O)C(C)O2)C(O)C(C)O1 (stereo not shown) [Analogue 50] | 353 nM | 646 nM | 1.8 | –
COC(=O)C(Cc1c[nH]c2c(-c3ccccc3)cccc12)NC(=O)C(OC)C1Cc2cc3cc(OC4CC(OC5CC(O)C(O)C(C)O5)C(O)C(C)O4)c(C)c(O)c3c(O)c2C(=O)C1OC1CC(OC2CC(OC3CC(C)(O)C(O)C(C)O3)C(O)C(C)O2)C(O)C(C)O1 (stereo not shown) [Analogue 52] | 2402 nM | > 10000 nM | – | –
C=CCc1cccc2c(CC(NC(=O)C(OC)C3Cc4cc5cc(OC6CC(OC7CC(O)C(O)C(C)O7)C(O)C(C)O6)c(C)c(O)c5c(O)c4C(=O)C3OC3CC(OC4CC(OC5CC(C)(O)C(O)C(C)O5)C(O)C(C)O4)C(O)C(C)O3)C(=O)OC)c[nH]c12 (stereo not shown) [Analogue 53] | 794 nM | 2990 nM | 3.8 | –
COC(=O)C(Cc1c[nH]c2cc(-n3cc(-c4ccccc4)nn3)ccc12)NC(=O)C(OC)C1Cc2cc3cc(OC4CC(OC5CC(O)C(O)C(C)O5)C(O)C(C)O4)c(C)c(O)c3c(O)c2C(=O)C1OC1CC(OC2CC(OC3CC(C)(O)C(O)C(C)O3)C(O)C(C)O2)C(O)C(C)O1 (stereo not shown) [Analogue 54] | 1030 nM | 5880 nM | 5.7 | –
COC(=O)C(Cc1c[nH]c2cc(C(F)(F)F)ccc12)NC(=O)C(OC)C1Cc2cc3cc(OC4CC(OC5CC(O)C(O)C(C)O5)C(O)C(C)O4)c(C)c(O)c3c(O)c2C(=O)C1OC1CC(OC2CC(OC3CC(C)(O)C(O)C(C)O3)C(O)C(C)O2)C(O)C(C)O1 (stereo not shown) [Analogue 55] | 2339 nM | 2400 nM | 1.0 | –
COC(=O)C(Cc1c[nH]c2cc3ccccc3cc12)NC(=O)C(OC)C1Cc2cc3cc(OC4CC(OC5CC(O)C(O)C(C)O5)C(O)C(C)O4)c(C)c(O)c3c(O)c2C(=O)C1OC1CC(OC2CC(OC3CC(C)(O)C(O)C(C)O3)C(O)C(C)O2)C(O)C(C)O1 (stereo not shown) [Analogue 57] | 3505 nM | > 10000 nM | – | ~34 fold
